According to ChEMBL document CHEMBL6071135, “New resorcylic acid derivatives of Lysimachia tengyuehensis against MRSA and VRE by interfering with bacterial metabolic imbalance” (Eur J Med Chem, 2024):
≈ marks a conversion by molar mass, not a printed value. Calls of active or inactive are those of the source. The rule behind the calls is not given here.

Tests used:
Staphylococcus aureus [1] = assay: Bactericidal activity against methicillin-resistant Staphylococcus aureus measured after 24 hrs by CLSI based broth microdilution method; format: functional
Enterococcus faecalis [2] = assay: Antibacterial activity against vancomycin-resistant Enterococcus faecalis ATCC51299 measured after 24 hrs by CLSI based broth microdilution method; format: functional
Enterococcus faecalis [3] = assay: Bactericidal activity against vancomycin-resistant Enterococcus faecalis ATCC51299 measured after 24 hrs by CLSI based broth microdilution method; format: functional
Staphylococcus aureus [4] = assay: Antibacterial activity against methicillin-resistant Staphylococcus aureus at sub-MIC concentration measured after 24 hrs by CLSI based broth microdilution method; format: functional, organism-based
Enterococcus faecalis [5] = assay: Antibacterial activity against vancomycin-resistant Enterococcus faecalis ATCC51299 at sub-MIC concentration measured after 24 hrs by CLSI based broth microdilution method; format: functional, organism-based
Staphylococcus aureus [6] = assay: Bactericidal activity against methicillin-resistant Staphylococcus aureus assessed as reduction in number of bacteria at 2 times MIC measured within 15 mins by time-kill assay; format: functional, organism-based
Enterococcus faecalis [7] = assay: Bactericidal activity against vancomycin-resistant Enterococcus faecalis ATCC51299 assessed as reduction in number of bacteria at 2 times MIC measured within 15 mins by time-kill assay; format: functional, organism-based
Staphylococcus aureus [8] = assay: Bactericidal activity against methicillin-resistant Staphylococcus aureus assessed as reduction in number of bacteria at 1 time MIC measured within 40 mins by time-kill assay; format: functional, organism-based
Enterococcus faecalis [9] = assay: Bactericidal activity against vancomycin-resistant Enterococcus faecalis ATCC51299 assessed as reduction in number of bacteria at 1 time MIC measured within 40 mins by time-kill assay; format: functional, organism-based
Staphylococcus aureus [10] = assay: Antibacterial activity against methicillin-resistant Staphylococcus aureus measured after 20 passages by broth microdilution method; format: functional, organism-based
Enterococcus faecalis [11] = assay: Antibacterial activity against vancomycin-resistant Enterococcus faecalis ATCC51299 measured after 20 passages by broth microdilution method; format: functional, organism-based
Staphylococcus aureus [12] = assay: Induction of morphological changes in biofilm of methicillin-resistant Staphylococcus aureus assessed as decrease in biofilm density at 1 to 4 times MIC incubated for 24 hrs by DAPI staining based fluorescence microscopy analysis; format: functional, organism-based
Staphylococcus aureus [13] = assay: Induction of morphological changes in biofilm of methicillin-resistant Staphylococcus aureus assessed as appearance of destroyed biofilm at 1 to 4 times MIC incubated for 24 hrs by DAPI staining based fluorescence microscopy analysis; format: functional, organism-based
Staphylococcus aureus [14] = assay: Induction of morphological changes in biofilm of methicillin-resistant Staphylococcus aureus assessed as appearance of broken biofilm at 1 to 4 times MIC incubated for 24 hrs by DAPI staining based fluorescence microscopy analysis; format: functional, organism-based
Enterococcus faecalis [15] = assay: Induction of morphological changes in biofilm of vancomycin-resistant Enterococcus faecalis ATCC51299 assessed as decrease in biofilm density at 1 to 4 times MIC incubated for 24 hrs by DAPI staining based fluorescence microscopy analysis; format: functional, organism-based
Enterococcus faecalis [16] = assay: Induction of morphological changes in biofilm of vancomycin-resistant Enterococcus faecalis ATCC51299 assessed as appearance of broken biofilm at 1 to 4 times MIC incubated for 24 hrs by DAPI staining based fluorescence microscopy analysis; format: functional, organism-based
Enterococcus faecalis [17] = assay: Antibiofilm activity in vancomycin-resistant Enterococcus faecalis ATCC51299 assessed as increase in biofilm destruction incubated for 24 hrs by crystal violet staining based analysis; format: functional, organism-based
Staphylococcus aureus [18] = assay: Induction of morphological changes in methicillin-resistant Staphylococcus aureus assessed as appearance of flocculated bacterial surface at 4 times MIC measured for 5 hrs by field emission scanning electron microscopy based analysis; format: functional, organism-based
Staphylococcus aureus [19] = assay: Induction of morphological changes in methicillin-resistant Staphylococcus aureus assessed as appearance of clustered bacterial surface at 4 times MIC measured for 5 hrs by field emission scanning electron microscopy based analysis; format: functional, organism-based
Staphylococcus aureus [20] = assay: Induction of morphological changes in methicillin-resistant Staphylococcus aureus assessed as appearance of ruptured bacterial surface at 4 times MIC measured for 5 hrs by field emission scanning electron microscopy based analysis; format: functional, organism-based
Staphylococcus aureus [21] = assay: Induction of morphological changes in methicillin-resistant Staphylococcus aureus assessed as appearance of died bacterial surface at 4 times MIC measured for 5 hrs by field emission scanning electron microscopy based analysis; format: functional, organism-based
Enterococcus faecalis [22] = assay: Induction of morphological changes in vancomycin-resistant Enterococcus faecalis ATCC51299 assessed as appearance of died bacterial surface at 4 times MIC measured for 5 hrs by field emission scanning electron microscopy based analysis; format: functional, organism-based
Enterococcus faecalis [23] = assay: Induction of morphological changes in vancomycin-resistant Enterococcus faecalis ATCC51299 assessed as appearance of ruptured bacterial surface at 4 times MIC measured for 5 hrs by field emission scanning electron microscopy based analysis; format: functional, organism-based
Enterococcus faecalis [24] = assay: Induction of morphological changes in vancomycin-resistant Enterococcus faecalis ATCC51299 assessed as appearance of clustered bacterial surface at 4 times MIC measured for 5 hrs by field emission scanning electron microscopy based analysis; format: functional, organism-based
Enterococcus faecalis [25] = assay: Induction of morphological changes in vancomycin-resistant Enterococcus faecalis ATCC51299 assessed as appearance of flocculated bacterial surface at 4 times MIC measured for 5 hrs by field emission scanning electron microscopy based analysis; format: functional, organism-based
Staphylococcus aureus [26] = assay: Antimicrobial activity against methicillin-resistant Staphylococcus aureus assessed as reduction in bacterial growth in presence of phosphatidylglycerol by checkerboard broth dilution method; format: functional, organism-based
Staphylococcus aureus [27] = assay: Antimicrobial activity against methicillin-resistant Staphylococcus aureus assessed as reduction in bacterial growth in presence of phosphatidylethanolamine by checkerboard broth dilution method; format: functional, organism-based
Staphylococcus aureus [28] = assay: Antimicrobial activity against methicillin-resistant Staphylococcus aureus assessed as reduction in bacterial growth in presence of peptidoglycan by checkerboard broth dilution method; format: functional, organism-based
Enterococcus faecalis [29] = assay: Antimicrobial activity against vancomycin-resistant Enterococcus faecalis ATCC51299 assessed as reduction in bacterial growth in presence of peptidoglycan by checkerboard broth dilution method; format: functional, organism-based
Enterococcus faecalis [30] = assay: Antimicrobial activity against vancomycin-resistant Enterococcus faecalis ATCC51299 assessed as reduction in bacterial growth in presence of phosphatidylethanolamine by checkerboard broth dilution method; format: functional, organism-based
Enterococcus faecalis [31] = assay: Antimicrobial activity against vancomycin-resistant Enterococcus faecalis ATCC51299 assessed as reduction in bacterial growth in presence of phosphatidylglycerol by checkerboard broth dilution method; format: functional, organism-based
Enterococcus faecalis [32] = assay: Antimicrobial activity against vancomycin-resistant Enterococcus faecalis ATCC51299 assessed as increase in cell membrane fluidity at upto 4 times MIC incubated for 35 mins by Laurdan-GP dye based spectramax gemini XPS microplate reader analysis; format: functional, organism-based
Cell membrane [33] = assay: Induction of cell membrane depolarization in methicillin-resistant Staphylococcus aureus assessed as reduction in fluorescence intensity measured for 30 mins by DiSC3(5) dye-based fluorescence assay; format: subcellular
Cell membrane [34] = assay: Induction of cell membrane depolarization in vancomycin-resistant Enterococcus faecalis ATCC51299 assessed as reduction in fluorescence intensity measured for 30 mins by DiSC3(5) dye-based fluorescence assay; format: subcellular
Cell membrane [35] = assay: Induction of cell membrane damage in methicillin-resistant Staphylococcus aureus assessed as increase in ROS accumulation at 4 times MIC incubated for 1 hr by fluorescence based analysis; format: subcellular
Cell membrane [36] = assay: Induction of cell membrane damage in methicillin-resistant Staphylococcus aureus assessed as increase in nucleic acid leakage at 4 times MIC incubated for 2 hrs by absorbance based analysis; format: subcellular
Cell membrane [37] = assay: Induction of cell membrane damage in vancomycin-resistant Enterococcus faecalis ATCC51299 assessed as increase in nucleic acid leakage at 4 times MIC incubated for 2 hrs by absorbance based analysis; format: subcellular

Compound | MBC (Staphylococcus aureus [1]) [µg/mL] | MIC (Enterococcus faecalis [2]) [µg/mL] | MBC (Enterococcus faecalis [3]) [µg/mL] | Activity (Staphylococcus aureus [4]) | Activity (Enterococcus faecalis [5]) | Activity (Staphylococcus aureus [6]) | Activity (Enterococcus faecalis [7]) | Activity (Staphylococcus aureus [8]) | Activity (Enterococcus faecalis [9]) | Activity (Staphylococcus aureus [10]) | Activity (Enterococcus faecalis [11]) | Activity (Staphylococcus aureus [12]) | Activity (Staphylococcus aureus [13]) | Activity (Staphylococcus aureus [14]) | Activity (Enterococcus faecalis [15]) | Activity (Enterococcus faecalis [16]) | Activity (Enterococcus faecalis [17]) | Activity (Staphylococcus aureus [18]) | Activity (Staphylococcus aureus [19]) | Activity (Staphylococcus aureus [20]) | further results
C=CCCCCCCCCCCCc1cc(O)cc(O)c1C(=O)O | 4 (≈ 12 µM) | 4 (≈ 12 µM) | 4 (≈ 12 µM) | Active | Active | Active | Active | Active | Active | inactive | inactive | Active | Active | Active | Active | Active | Dose-Dependent Effect | Active | Active | Active | Activity (Staphylococcus aureus [21]): Active; Activity (Enterococcus faecalis [22]): Active; Activity (Enterococcus faecalis [23]): Active; Activity (Enterococcus faecalis [24]): Active; Activity (Enterococcus faecalis [25]): Active; Activity (Staphylococcus aureus [26]): inactive; Activity (Staphylococcus aureus [27]): inactive; Activity (Staphylococcus aureus [28]): Active; Activity (Enterococcus faecalis [29]): inactive; Activity (Enterococcus faecalis [30]): inactive; Activity (Enterococcus faecalis [31]): Active; Activity (Enterococcus faecalis [32]): Active; Activity (Cell membrane [33]): Active; Activity (Cell membrane [34]): Active; Activity (Cell membrane [35]): Active; Activity (Cell membrane [36]): Active; Activity (Cell membrane [37]): Active
C=CCCCCCCCCCCCc1cc(O)cc(O)c1 | 4 (≈ 13.8 µM) | 4 (≈ 13.8 µM) | 4 (≈ 13.8 µM) | Active | Active | Active | Active | Active | Active | inactive | inactive | Active | Active | Active | Active | Active | Dose-Dependent Effect | Active | Active | Active | Activity (Staphylococcus aureus [21]): Active; Activity (Enterococcus faecalis [22]): Active; Activity (Enterococcus faecalis [23]): Active; Activity (Enterococcus faecalis [24]): Active; Activity (Enterococcus faecalis [25]): Active; Activity (Staphylococcus aureus [26]): inactive; Activity (Staphylococcus aureus [27]): inactive; Activity (Staphylococcus aureus [28]): Active; Activity (Enterococcus faecalis [29]): inactive; Activity (Enterococcus faecalis [30]): inactive; Activity (Enterococcus faecalis [31]): Active; Activity (Enterococcus faecalis [32]): Active; Activity (Cell membrane [33]): Active; Activity (Cell membrane [34]): Active; Activity (Cell membrane [35]): Active; Activity (Cell membrane [36]): Active; Activity (Cell membrane [37]): Active
